Read-outs that look alike come from different tables or passages of the source.
Legend:
[1] = system: HT-29 (colorectal carcinoma); experiment: In vitro cytotoxic activity (GI50), propidium iodide dye indicator; conditions: read-out: In vitro Cytotoxic Activities GI50, HT-29
[2] = system: PC-3 (prostate adenocarcinoma); experiment: as above; format: cell-based; conditions: PC-3, 96 hrs incubation; read-out: In vitro Cytotoxic Activities GI50, PC-3
Excerpt: (§1) Procedure used for the tests is described below.

SF268 (CNS) = experiment: as above; format: cell-based; conditions: SF-268, 96 hrs incubation, read-out: In vitro Cytotoxic Activities GI50, SF-268
Excerpt: as §1

[3] = system: MDA-MB-231 (mammary gland adenocarcinoma); experiment: as above; format: cell-based; conditions: MDA-MB-231, 96 hrs incubation, read-out: In vitro Cytotoxic Activities GI50, MDA-MB-231
Excerpt: as §1

[4] = system: HT-29, SF268, MDA-MB-231 and PC-3; experiment: In vitro cytotoxic activity, four cell lines together (average / overall statement); conditions: for GI50: read-out: In vitro Cytotoxic Activities GI50, Average; for exhibited in vitro anticancer activity at 30 μM: four cell lines
in vivo = conditions: Sprague-Dawley, rat, plasma, iv, 30 mg/kg
Procedure: Each blood sample (approximately 0.5 mL) was collected into microtainer tubes containing anticoagulant K2EDTA. The samples were centrifuged at a temperature ranging from about 2 to about 8° C. for 10 minutes at 1500 g (RCF). A volume of 25 μL of 4% w/v L-aqueous acid was added to a volume of 225 μL of rat plasma in a clean tube, and the samples were mixed by inversion.
LOQ and LOD values were determined according to the concentration range used in the experiment, using a MDS Sciex API 2000™ Q-Trap™. Mean concentration values and standard deviation (SD) were calculated at each timepoints of the pharmacokinetic study (n=3 animals/timepoint).
Blood was collected, centrifuged and analyzed as above.

[5] = Conversion to Compound 1 by rat liver homogenate; format: in vitro ADME, Sprague Dawley rats; conditions: 37° C.
Procedure: The aim of this test was to determine if the phosphate prodrugs were cleaved by phosphatases present in the liver.
Rat liver (3 g from Sprague Dawley rats) was weighed into a centrifuge tube and 12 mL of Buffer A was added, representing a 1:4 tissue/buffer ratio, which were homogenized for at least 30 seconds at ambient temperature.
Stock solutions of test article, control and internal standards were prepared as shown in Table 8 by diluting the compound in the appropriate solvent.
Liver homogenate (180 μL) was transferred into Eppendorf™ tubes (polypropylene, size 1.8 mL). Tubes for Blank, 0 min, 30 min, 1 h, 2 h, 3 h, 4 h and 5 h for each concentration of compound to be tested. Blank tubes were prepared by adding 200 μL of homogenate per tube.
Immediately after vortexing, the 0 min samples (for calibration) were extracted with extraction Methods A and B (see below). The remaining tubes were incubated at 37° C. for the prescribed length of time.
The mixture was allowed to stand for 10 minutes at room temperature. It was then centrifuged at 13000 RPM for 5 minutes at 4° C. The supernatant was tested by LC-MS/MS (Method B).
A volume of 800 μL of acetonitrile containing IS 200 ng/mL (Stock F) was added to the homogenate and the mixture vortexed for 30 sec. The mixture was allowed to stand at room temperature for 10 minutes, and was centrifuged at 13000 RPM for 5 minutes at 4° C. The supernatant was tested by LC-MS/MS (Method A).
Both LC methods were accomplished using the same HPLC system (Agilent Technologies 1100 with Binary pump and autosampler, and an Agilent 1100 Autosampler needle wash to avoid contamination of the needle. Both MS/MS method were done using a MDS Sciex™ MS system under positive electrospray ionization.
Multiple Reaction Monitoring (MRM) was used as scan type in Method A MS/MS.
LC Method B (long method) was done using 20 μL of test solution on a Waters Symmetry™ C-18, 3.5μ (3.0×100 mm id) and a divert pump flow rate of 1.0 ml/min using the conditions described in Table 10.
Enhanced Product Ion (EPI) was used as scan type in Method B MS/MS.

[6] = average of HT-29, SF-268, PC-3, MDA-MB-231

Row | Structure (SMILES) | GI50 ([1]; HT-29, 96 hrs incubation) | GI50 [2] | GI50 (SF268 (CNS)) | GI50 [3] | GI50 [4, 6] | GI50 ([1]; Homo sapiens, HT-29, 96 h) | GI50 (SF268 (CNS); Homo sapiens) | GI50 ([3]; Homo sapiens) | exhibited in vitro anticancer activity at 30 μM [4] | GI50 [4] | solubility (physchem) | further results
1 | CC(=O)Oc1cc(OC(C)=O)c2c(c1)N(C/C=C(\C)CC/C=C(\C)CCC=C(C)C)C(=O)c1cccc(OC(C)=O)c1N2 [A, reference compound] | 9.33 µM | 1.2 µM | 1.95 µM | 2.79 µM | 3.82 µM | – | – | – | – | – | – | –
2 | CC(=O)Oc1cccc2c1Nc1c(OC(C)=O)cc(O)cc1N(C/C=C(\C)CC/C=C(\C)CCC=C(C)C)C2=O [B, reference compound] | 12.6 µM | 1.44 µM | 1.88 µM | 2.48 µM | 4.6 µM | – | – | – | – | – | – | –
3 | CC(=O)Oc1cc(O)c2c(c1)N(C/C=C(\C)CC/C=C(\C)CCC=C(C)C)C(=O)c1cccc(OC(C)=O)c1N2 [C, reference compound] | 16 µM | 5.35 µM | 5.79 µM | 7.72 µM | 8.72 µM | – | – | – | – | – | – | –
4 | CC(C)=CCC/C(C)=C/CC/C(C)=C/CN1C(=O)c2cccc(O)c2Nc2c(O)cc(O)cc21 [Compound 1, 10-farnesyl4,6,8-trihydroxy-5,10-dihydrodibenzo[b,e][1,4]diazepin-11-one] | – | – | – | – | – | – | – | – | – | – | – | AUC (in vivo): 70200 ng·h/mL
5 | CC(C)=CCC/C(C)=C/CC/C(C)=C/CN1C(=O)c2cccc(OP(=O)(OCc3ccccc3)OCc3ccccc3)c2Nc2c(OP(=O)(OCc3ccccc3)OCc3ccccc3)cc(OP(=O)(OCc3ccccc3)OCc3ccccc3)cc21 [Compound 2, 10-farnesyl-4,6,8-tri(bisbenzyloxyphosphoryloxy)-5,10-dihydro-dibenzo[b,e][1,4]diazepin-11-one] | – | > 30 µM | – | – | – | > 30 µM | > 30 µM | > 30 µM | None | > 30 µM | – | –
6 | CC(C)=CCCC(C)=CCCC(C)=CCN1C(=O)c2cccc(OP(=O)(O)OCc3ccccc3)c2Nc2c(OP(=O)(O)OCc3ccccc3)cc(OP(=O)(O)OCc3ccccc3)cc21.N.N.N [Compound 9 (NH4^+)3, 10-farnesyl-4,6,8-tri(benzyloxyhydroxyphosphoryloxy)-5,10-dihydro-dibenzo[b,e][1,4]diazepin-11-one triammonium salt] | – | > 30 µM | – | – | – | > 30 µM | > 30 µM | > 30 µM | None | > 30 µM | > 40 mg/mL | Concentration of Compound 9 (remaining prodrug) vs Time of Incubation ([5]; initial conc. 5 μg/mL in homogenate, 0 min): 1840 ng/mL; Concentration of Compound 9 (remaining prodrug) vs Time of Incubation ([5]; initial conc. 5 μg/mL in homogenate, 0.5 h): 2040 ng/mL; Concentration of Compound 9 (remaining prodrug) vs Time of Incubation ([5]; initial conc. 5 μg/mL in homogenate, 1 h): 2570 ng/mL; Concentration of Compound 9 (remaining prodrug) vs Time of Incubation ([5]; initial conc. 5 μg/mL in homogenate, 2 h): 856 ng/mL; Concentration of Compound 9 (remaining prodrug) vs Time of Incubation ([5]; initial conc. 5 μg/mL in homogenate, 3 h): 544 ng/mL; Concentration of Compound 9 (remaining prodrug) vs Time of Incubation ([5]; initial conc. 5 μg/mL in homogenate, 4 h): <LOD; Concentration of Compound 9 (remaining prodrug) vs Time of Incubation ([5]; initial conc. 5 μg/mL in homogenate, 5 h): <LOD; Concentration of Compound 9 (remaining prodrug) vs Time of Incubation ([5]; initial conc. 20 μg/mL in homogenate, 0 min): 13300 ng/mL; Concentration of Compound 9 (remaining prodrug) vs Time of Incubation ([5]; initial conc. 20 μg/mL in homogenate, 0.5 h): 14600 ng/mL; Concentration of Compound 9 (remaining prodrug) vs Time of Incubation ([5]; initial conc. 20 μg/mL in homogenate, 1 h): 9030 ng/mL; Concentration of Compound 9 (remaining prodrug) vs Time of Incubation ([5]; initial conc. 20 μg/mL in homogenate, 2 h): 2970 ng/mL; Concentration of Compound 9 (remaining prodrug) vs Time of Incubation ([5]; initial conc. 20 μg/mL in homogenate, 3 h): 1530 ng/mL; Concentration of Compound 9 (remaining prodrug) vs Time of Incubation ([5]; initial conc. 20 μg/mL in homogenate, 4 h): 1080 ng/mL; Concentration of Compound 9 (remaining prodrug) vs Time of Incubation ([5]; initial conc. 20 μg/mL in homogenate, 5 h): 948 ng/mL
7 | CC(C)=CCC/C(C)=C/CC/C(C)=C/CN1C(=O)c2cccc(OP(=O)(O)O)c2Nc2c(OP(=O)(O)O)cc(OP(=O)(O)O)cc21 [Compound 16] | – | > 30 µM | – | – | – | > 30 µM | > 30 µM | > 30 µM | None | > 30 µM | > 40 mg/mL | –
8 | CC(C)=CCC/C(C)=C/CC/C(C)=C/CN1C(=O)c2cccc(O)c2Nc2c(OP(=O)(O)O)cc(O)cc21.N.N [Compound 21 (NH4^+)2, 4,8-dihydroxy-10-farnesyl-6-phosphonooxy-5,10-dihydro-dibenzo[b,e][1,4]diazepin-11-one diammonium salt] | – | > 30 µM | – | – | – | > 30 µM | > 30 µM | > 30 µM | None | > 30 µM | 5 mg/mL | –
9 | CC(=O)Oc1cc(OC(C)=O)c2c(c1)N(C/C=C(\C)CC/C=C(\C)CCC=C(C)C)C(=O)c1cccc(O)c1N2 [D, reference compound] | 13 µM | 1.35 µM | 2.02 µM | 1.55 µM | 4.48 µM | – | – | – | – | – | – | –
